Laboratory results reported in PMC3958311 (EMBO Molecular Medicine, 2014).
Values after ≈ are worked out from the molar mass of the structure shown. Like-named read-outs stand apart in the source and are kept apart here.

How the values were obtained:
[1] = tested on: M. vaccae ATCC 15483; test: MIC99 by REMA; type: cell-based; settings: Mycolicibacterium vaccae, ATCC15483; M. vaccae ATCC 15483; read-out: MIC99
[2] = in vitro; settings: mouse, microsomes
[3] = tested on: HepG2 human cell line
[4] = in vivo
Description: Table S5. Principal pharmacokinetic properties1
1 See Figure S5 for primary data.
Compound levels were measured in serum from individual female mice (3/time point) that had received a single dose of 25 mg/kg. Maximum concentration (Cmax); area under the curve (AUC); apparent clearance.
Comparative pharmacokinetic analysis. After receiving a single dose
(25 mg/kg) of PBTZ169 or BTZ043 by gavage, groups of three female mice were sacrificed at the times indicated, blood was obtained by cardiac puncture and the drug levels in serum determined by LC-MS/MS technique (limit of quantification 10 μg/L).

[5] = tested on: M. bovis BCG Pasteur; test: microbe, parasite or virus in culture; type: cell-based, Mycobacterium bovis BCG; settings: Mycobacterium tuberculosis variant bovis BCG, BCG
[6] = tested on: zebrafish embryos; type: in vivo, zebrafish (Danio rerio)
Description: On examination of infected zebrafish embryos treated with BTZ043 it was observed that the compound affected embryo development (Fig 6A–G) especially at concentrations above 25 nM. […] These defects were also observed when uninfected embryos were exposed to BTZ043.
Figure 6 Effect of BTZ043 on M. marinum infected zebrafish embryo development. A–D M. marinum infected zebrafish embryos were treated with BTZ043 for 5 days at the concentrations indicated and photographed using a Leica DFC420C camera. The M strain was used for infection. E–F Images of the notochord from untreated and treated zebrafish, arrows indicate developmental abnormalities. G Analysis of zebrafish embryos displaying developmental abnormalities treated with BTZ043 (BTZ) or PBTZ169 (PBTZ) at the concentrations indicated.

[7] = tested on: M. smegmatis GM22; test: microbe, parasite or virus in culture; type: cell-based; settings: Mycolicibacterium smegmatis; for MIC99: M. smegmatis GM22, overproduces NfnB nitroreductase, read-out: MIC99
[8] = tested on: M. abscessus 2005-0524; test: MIC99 by REMA; type: cell-based; settings: Mycobacteroides abscessus, 20050524; M. abscessus 2005-0524; read-out: MIC99
[9] = tested on: M. tuberculosis H37Rv; type: in vivo, BALB/c mice
[10] = tested on: M. marinum Strain M; test: MIC99 by REMA; type: cell-based, Mycobacterium marinum; settings: Mycobacterium marinum; M. marinum Strain M; read-out: MIC99
[11] = molecular target: M. tuberculosis DprE1 (Mycobacterium tuberculosis, UniProt P9WJF1); test: DprE1 inhibition, two step peroxidase-coupled assay with Amplex Red; type: biochemical; settings: 5 min incubation, 5 μM enzyme, 200 μM FPR
[12] = tested on: M. avium ATCC 15769; test: MIC99 by REMA; type: cell-based; settings: Mycobacterium avium, ATCC15769; M. avium ATCC 15769; read-out: MIC99
[13] = tested on: M. tuberculosis MDR_CHUV; test: MIC99 by REMA; type: cell-based, Mycobacterium tuberculosis; settings: Mycobacterium tuberculosis; read-out: MIC99
[14] = human
[15] = in vitro; settings: human, microsomes
[16] = tested on: M. smegmatis mc^2155; test: MIC99 by REMA; type: cell-based, Mycobacterium smegmatis; settings: Mycolicibacterium smegmatis; M. smegmatis mc^2155; read-out: MIC99
[17] = tested on: M. bovis BCG BN2; type: cell-based, Mycobacterium bovis BCG
[18] = tested on: C. glutamicum ATCC 13032; test: MIC99 by REMA; type: cell-based, Corynebacterium glutamicum; settings: Corynebacterium glutamicum, ATCC13032; C. glutamicum ATCC 13032; read-out: MIC99
[19] = tested on: M. bolletii 1999-0888; test: MIC99 by REMA; type: cell-based; settings: Mycobacteroides abscessus, 19990888; M. bolletii 1999-0888; read-out: MIC99
[20] = molecular target: T1, purified recombinant M. smegmatis NfnB (Mycolicibacterium smegmatis, UniProt A0R6D0); test: NfnB-mediated nitroreduction followed by LC-MS; type: biochemical
T1 construct: made in house

[21] = tested on: M. massiliense 2005-0484; test: MIC99 by REMA; type: cell-based; settings: Mycobacteroides abscessus, 20050484; M. massiliense 2005-0484; read-out: MIC99
[22] = tested on: M. marinum strain M; type: in vivo, zebrafish (Danio rerio); settings: 5 days treatment
[23] = tested on: M. tuberculosis H37Rv; test: MIC by resazurin reduction microplate assay (REMA); type: cell-based, Mycobacterium tuberculosis; settings: Mycobacterium tuberculosis; for MIC99: read-out: MIC99
[24] = tested on: C. diphtheriae DSM 44123; test: MIC99 by REMA; type: cell-based, Corynebacterium diphtheriae; settings: Corynebacterium diphtheriae, DSM44123; C. diphtheriae DSM 44123; read-out: MIC99
[25] = mouse
[26] = tested on: M. tuberculosis clinical isolate 6412; test: Drug susceptibility testing on solid Löwenstein-Jensen medium; type: cell-based; settings: Mycobacterium tuberculosis; […]; solid Löwenstein-Jensen medium; read-out: MIC
[27] = tested on: M. tuberculosis clinical isolate 4328; test: as above; type: cell-based; settings: Mycobacterium tuberculosis; […]; solid Löwenstein-Jensen medium; read-out: MIC
[28] = tested on: M. tuberculosis clinical isolate 6448; test: as above; type: cell-based; settings: Mycobacterium tuberculosis; […]; solid Löwenstein-Jensen medium; read-out: MIC
[29] = tested on: M. tuberculosis H37Rv; test: as above; type: cell-based; settings: Mycobacterium tuberculosis; H37Rv, Sensitive; solid Löwenstein-Jensen medium, 21-28 days; read-out: MIC
[30] = tested on: M. tuberculosis clinical isolate 6374; test: as above; type: cell-based; settings: Mycobacterium tuberculosis; […]; solid Löwenstein-Jensen medium; read-out: MIC
[31] = tested on: M. tuberculosis clinical isolate 5253; test: as above; type: cell-based; settings: Mycobacterium tuberculosis; […]; solid Löwenstein-Jensen medium; read-out: MIC
[32] = tested on: M. tuberculosis clinical isolate 6418; test: as above; type: cell-based; settings: Mycobacterium tuberculosis; […]; solid Löwenstein-Jensen medium; read-out: MIC
[33] = tested on: M. tuberculosis clinical isolate 5055; test: as above; type: cell-based; settings: Mycobacterium tuberculosis; […]; solid Löwenstein-Jensen medium; read-out: MIC
[34] = tested on: M. tuberculosis clinical isolate 7384; test: as above; type: cell-based; settings: Mycobacterium tuberculosis; […]; solid Löwenstein-Jensen medium; read-out: MIC
[35] = tested on: M. tuberculosis clinical isolate 6341; test: as above; type: cell-based; settings: Mycobacterium tuberculosis; […]; solid Löwenstein-Jensen medium; read-out: MIC
[36] = female, mouse, in vivo, po, 25 mg/kg
[37] = Table 1, H37Rv, REMA, read-out: MIC M. tuberculosis
[38] = Table S1, M. tuberculosis H37Rv, read-out: MIC

T1 sequence (A0R6D0 whole entry): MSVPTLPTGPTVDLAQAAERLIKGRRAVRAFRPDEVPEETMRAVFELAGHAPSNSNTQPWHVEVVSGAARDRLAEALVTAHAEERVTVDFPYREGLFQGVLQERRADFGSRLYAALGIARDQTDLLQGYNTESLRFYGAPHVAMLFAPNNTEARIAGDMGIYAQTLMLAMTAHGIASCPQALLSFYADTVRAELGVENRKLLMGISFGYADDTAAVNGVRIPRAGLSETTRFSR
M. tuberculosis DprE1, sequence (P9WJF1 whole entry, looked up): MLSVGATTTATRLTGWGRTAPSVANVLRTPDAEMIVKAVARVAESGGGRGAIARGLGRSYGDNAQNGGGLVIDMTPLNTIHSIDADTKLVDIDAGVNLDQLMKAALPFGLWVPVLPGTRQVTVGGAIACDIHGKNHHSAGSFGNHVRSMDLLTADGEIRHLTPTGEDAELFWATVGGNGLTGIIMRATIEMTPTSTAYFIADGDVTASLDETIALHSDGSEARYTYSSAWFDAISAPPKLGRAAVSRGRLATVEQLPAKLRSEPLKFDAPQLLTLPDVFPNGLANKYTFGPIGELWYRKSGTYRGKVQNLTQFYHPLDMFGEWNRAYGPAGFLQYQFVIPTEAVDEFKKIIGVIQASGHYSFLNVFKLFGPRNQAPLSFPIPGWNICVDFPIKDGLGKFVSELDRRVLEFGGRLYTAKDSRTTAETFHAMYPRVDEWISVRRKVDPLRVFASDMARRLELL

## C[C@H]1COC2(CCN(c3nc(=O)c4cc(C(F)(F)F)cc([N+](=O)[O-])c4s3)CC2)O1 [BTZ043, 2-[(2S)-2-methyl-1,4-dioxa-8-azaspiro[4.5]dec-8-yl]-8-nitro-6-(trifluoromethyl)-4H-1,3-benzothia-zin-4-one]
[1]
  MIC99: > 100 µg/mL
[2]
  microsomal CLint: 12.2 µL/min/mg
[3]; HepG2
  TD50: 5 µg/mL
[3]; HepG2, REMA, triplicate, toxic dose inhibiting 50% of the population
  TD50: 5 µg/mL
[3]; HepG2, REMA, triplicate, toxic dose inhibiting 99% of the population
  TD99: 25 µg/mL
[3]; HepG2 cytotoxicity relative to MIC
  selectivity index: > 10 000
[4]; [36]
  Cmax: 1920 ng/mL
  half-life: 1.67 h
  k el: 0.000116 s⁻¹
[4]; serum, female mice, single dose 25 mg/kg by gavage, non-compartmental
  AUC: 259829 µg·min/L
[5]
  MIC99: 0.001 µg/mL (≈ 0.00232 µM)
[6]; 25 nM
  embryos affected (notochord defects, shortened Anterior-Posterior axis): 60.4%
[6]; 50 nM
  embryos affected (notochord defects, shortened Anterior-Posterior axis): 76.7%
[7]; GM22, read-out: MIC for GM22
  MIC: 0.05 µg/mL (≈ 0.116 µM)
[7]
  MIC99: 0.031 µg/mL (≈ 0.0719 µM)
[8]
  MIC99: > 100 µg/mL
[9]; 50 mg/kg per day, 28 days
  bacterial burden in the lungs lower than untreated control: 0.6 logs
  bacterial burden in the spleens lower than untreated control: 1.7 logs
[9]; dose escalation study, 50 mg/kg, four weeks
  reduction of bacterial burden in the lungs and spleens: 1 log
[10]
  MIC99: 0.0007 µg/mL (≈ 0.00162 µM)
[11]
  concentration giving full inhibition of DprE1: 20 µM
[12]
  MIC99: > 100 µg/mL
[13]
  MIC99: 0.002 µg/mL (≈ 0.00464 µM)
[14]
  clearance on incubation with microsomes (in words): medium clearance values
[15]
  microsomal CLint: 16 µL/min/mg
[16]
  MIC99: 0.001 µg/mL (≈ 0.00232 µM)
[17]
  MIC99: >100 µg/mL
  fold increased resistance conferred by the Cys387Ser mutation in DprE1: > 10 000 fold
[18]
  MIC99: 0.063 µg/mL (≈ 0.146 µM)
[19]
  MIC99: > 100 µg/mL
[20]
  NfnB-mediated reduction, species found by LC-MS: almost entirely converted to its hydroxylamino analogue
[21]
  MIC99: > 100 µg/mL
[22]; 5 nM
  effect on the infection in zebrafish embryos: no significant effect
[22]; 25 or 50 nM
  bacterial burden in infected zebrafish embryos (fluorescence): almost no bacteria were present
[23]; M. tuberculosis H37Rv
  MIC99: 0.001 µg/mL (≈ 0.00232 µM)
[24]
  MIC99: 0.06 µg/mL (≈ 0.139 µM)
[25]
  clearance on incubation with microsomes (in words): medium clearance values

## NC(=O)N1c2ccccc2C=Cc2ccccc21 [Carbamazepine]
[2]
  microsomal CLint: 1.1 µL/min/mg
[15]
  microsomal CLint: 0.5 µL/min/mg

## NNC(=O)c1ccncc1 [INH, isoniazid]
[26]
  MIC: > 20 µg/mL
[27]
  MIC: 0.125 µg/mL (≈ 0.911 µM)
[28]
  MIC: > 20 µg/mL
[29]
  MIC: 0.125 µg/mL (≈ 0.911 µM)
[30]
  MIC: > 20 µg/mL
[31]
  MIC: > 20 µg/mL
[32]
  MIC: > 20 µg/mL
[33]
  MIC: > 20 µg/mL
[34]
  MIC: > 20 µg/mL
[35]
  MIC: > 20 µg/mL

## O=c1nc(N2CCN(CCC3CCCCC3)CC2)sc2c([N+](=O)[O-])cc(C(F)(F)F)cc12 [PBTZ129]
[23]; [37]
  MIC: 0.00019 µg/mL (≈ 0.000404 µM)
[23]; [38]
  MIC: 0.00019 µg/mL (≈ 0.000404 µM)

## CCCCCCCN1CCN(c2nc(=O)c3cc(C(F)(F)F)cc([N+](=O)[O-])c3s2)CC1 [PBTZ134]
[9]; 50 mg/kg per day, 28 days
  reduction of bacterial burden in the spleens, fold more than BTZ043: 10 fold
[20]
  NfnB-mediated reduction, species found by LC-MS: as susceptible to NfnB-mediated reduction as BTZ043
[23]; [37]
  MIC: 0.00019 µg/mL (≈ 0.000414 µM)
[23]; [38]
  MIC: 0.00019 µg/mL (≈ 0.000414 µM)

## O=c1nc(N2CCN(CCCCOc3ccccc3)CC2)sc2c([N+](=O)[O-])cc(C(F)(F)F)cc12 [PBTZ137]
[23]; [37]
  MIC: 0.0015 µg/mL (≈ 0.00295 µM)
[23]; [38]
  MIC: 0.0015 µg/mL (≈ 0.00295 µM)

## O=c1nc(N2CCN(CCCCc3ccccc3)CC2)sc2c([N+](=O)[O-])cc(C(F)(F)F)cc12 [PBTZ139]
[23]; [37]
  MIC: 0.00037 µg/mL (≈ 0.000751 µM)
[23]; [38]
  MIC: 0.00037 µg/mL (≈ 0.000751 µM)

## CO[C@H]1/C=C/O[C@@]2(C)Oc3c(C)c(O)c4c(O)c(c(/C=N/N5CCN(C)CC5)c(O)c4c3C2=O)NC(=O)/C(C)=C\C=C\[C@H](C)[C@H](O)[C@@H](C)[C@@H](O)[C@@H](C)[C@H](OC(C)=O)[C@@H]1C [RIF, rifampicin]
[1]
  MIC99: 100 µg/mL (≈ 122 µM)
[5]
  MIC99: 0.001 µg/mL (≈ 0.00122 µM)
[7]
  MIC99: 1 µg/mL (≈ 1.22 µM)
[8]
  MIC99: 6.25 µg/mL (≈ 7.59 µM)
[10]
  MIC99: 0.39 µg/mL (≈ 0.474 µM)
[12]
  MIC99: 25 µg/mL (≈ 30.4 µM)
[13]
  MIC99: > 100 µg/mL
[16]
  MIC99: 0.5 µg/mL (≈ 0.608 µM)
[17]
  MIC99: 0.0008 µg/mL (≈ 0.000972 µM)
[18]
  MIC99: 0.004 µg/mL (≈ 0.00486 µM)
[19]
  MIC99: 50 µg/mL (≈ 60.8 µM)
[21]
  MIC99: 25 µg/mL (≈ 30.4 µM)
[23]; M. tuberculosis H37Rv
  MIC99: 0.001 µg/mL (≈ 0.00122 µM)
[24]
  MIC99: 0.0008 µg/mL (≈ 0.000972 µM)
